Assay results published in US20250134890A1, “ANTIMALARIAL HEXAHYDROPYRIMIDINE ANALOGUES” (UCB BIOPHARMA SRL, priority 2022, published 2025).
Counter-ions that a name gives are not always drawn.

The compounds below were run on Plasmodium falciparum: 3D7 strain (assay: P. falciparum 3D7 asexual blood stage assay (SYBR green readout)). Settings: Plasmodium falciparum, 3D7, Erythrocyte, 72 h, P. falciparum 3D7 in human erythrocytes, 72 h incubation, SYBR green fluorescence.
Format: cell-based
Text: The compounds of the present invention are potent inhibitors of the growth and propagation of the Plasmodium falciparum parasite in human blood.
The assay used to measure the effect of test compounds on a bloodstream stage of Plasmodium falciparum: 3D7 strain employs SYBR green as the readout. This is a dye that binds to double stranded deoxyribonucleic acid (DNA) with a resulting increase in fluorescence, allowing detection of P. falciparum DNA in infected erythrocytes, and thereby providing a measure of parasite growth and propagation.
Erythrocytes (A+blood) were prepared for both parasite culture and assay by washing 4 times with incomplete media (15.9 g RPMI 1640 (25 mM HEPES, L-glutamine), 1 g NaHCO3, 2 g glucose, 400 μL gentacin (500 mg/mL), 2 mL hypoxanthine solution (13.6 g/L in 0.1M NaOH pH 7.3) in 1 litre of media). The cells were centrifuged at 1800 g for 5 minutes, before decanting the supernatant and re-suspending in fresh incomplete media. On the final wash, the cells were re-suspended in complete media (incomplete media with 5 g/L AlbumaxII), and centrifuged at 1800 g for 3 minutes. This cell sediment was treated as 100% haematocrit.
P. falciparum 3D7 was cultured in erythrocytes at 5% haematocrit in complete media at 37° C. (1% O2, 3% CO2, balance N2). Cultures were split on a weekly basis to achieve a 1% parasitaemia in erythrocites at 5% haematocrit in fresh media. Culture media is replaced by fresh media every other day (2 times during the week).
On day 1, test compounds were added to assay plates using Echo dispensing technology ([…] and 20 points titration). 50 nL of each compound dilution was added to 50 μL of culture (5% haematocrit, 0.5% parasitaemia) and incubated for 72 h at 37° C. (1% O2, 3% CO2, balance N2). Final concentrations of test compounds ranged from 50,000 nM to 15 nM, in […].
On day 4, 10 μL SYBR green (Invitrogen S7563 supplied as 10,000×concentrate in DMSO) pre-diluted to 3×concentrate with Lysis buffer (20 mM Tris pH 7.9, 5% EDTA, 0.16% w/v, 1.6% TX100 v/v) was added to the cultures and incubated in the dark, overnight, at room temperature.
On day 5, fluorescent signal was measured using a BioTek plate reader (excitation 485 nm, emission 528 nm). All data were processed using IDBS ActivityBase. Raw data were converted into percent inhibition through linear regression by setting the high inhibition control (mefloquine) as 100% and the no inhibition control (DMSO) as 0%. Quality control criteria for passing plates were as follows: Z′>0.5, S:B>3, % CV(no inhibition control)<15. The formula used to calculate Z′ is: […]
All EC50 curve fitting was undertaken using the following bi-phasic two site dose response using XLfit model 300 (IDBS):
where A=100 minus the top of the upper curve 1 and the bottom of lower curve; B=Hill slope; log(C)=IC50 concentration at lower site; log(D)=IC50 concentration at upper site; x=inhibitor concentration; and y=% inhibition.
Compound `C[C@H]1C[C@@H](N2C(=N)N[C@](C)(c3cccc(-c4ccc(OC(F)F)nc4)c3Cl)CC2=O)CCS1(=O)=O` (relative stereo) [Example 71, (6S)-6-{2-Chloro-3-[6-(difluoro-methoxy)pyridin-3-yl]phenyl}-2-imino-6-methyl-3-[(2S*,4S*)-2-methyl-1,1-dioxothian-4-yl]-hexahydropyrimidin-4-one hydrochloride] has an IC50 of 151 nM. In the case of `C[C@H]1C[C@H](N2C(=N)N[C@](C)(c3cccc(-c4ccc(OC(F)F)nc4)c3Cl)CC2=O)CCS1(=O)=O` (relative stereo) [Example 73, (6S)-6-{2-Chloro-3-[6-(difluoro-methoxy)pyridin-3-yl]phenyl}-2-imino-6-methyl-3-[(2S*,4R*)-2-methyl-1,1-dioxothian-4-yl]-hexahydropyrimidin-4-one hydrochloride], the IC50 is reported as 227 nM. In the case of `C[C@@H]1C[C@H](N2C(=N)N[C@](C)(c3cccc(-c4ccc(Cl)cn4)c3Cl)CC2=O)CCS1(=O)=O` (relative stereo) [Example 74, (6S)-6-[2-Chloro-3-(5-chloro-pyridin-2-yl)phenyl]-2-imino-6-methyl-3-[(2R*,4R*)-2-methyl-1,1-dioxothian-4-yl]hexahydro-pyrimidin-4-one hydrochloride], the IC50 is reported as 59 nM. Compound `C[C@H]1C[C@@H](N2C(=N)N[C@](C)(c3cccc(-c4ccc(Cl)cn4)c3Cl)CC2=O)CCS1(=O)=O` (relative stereo) [Example 75, (6S)-6-[2-Chloro-3-(5-chloro-pyridin-2-yl)phenyl]-2-imino-6-methyl-3-[(2S*,4S*)-2-methyl-1,1-dioxothian-4-yl]hexahydro-pyrimidin-4-one hydrochloride] has an IC50 of 217 nM. Compound `C[C@H]1C[C@H](N2C(=N)N[C@](C)(c3cccc(-c4ccc(Cl)cn4)c3Cl)CC2=O)CCS1(=O)=O` (relative stereo) [Example 76, (6S)-6-[2-Chloro-3-(5-chloro-pyridin-2-yl)phenyl]-2-imino-6-methyl-3-[(2S*,4R*)-2-methyl-1,1-dioxothian-4-yl]hexahydro-pyrimidin-4-one hydrochloride] has an IC50 of 2460 nM. Work on `C[C@@H]1C[C@@H](N2C(=N)N[C@](C)(c3cccc(-c4ccc(Cl)cn4)c3Cl)CC2=O)CCS1(=O)=O` (relative stereo) [Example 77, (6S)-6-[2-Chloro-3-(5-chloro-pyridin-2-yl)phenyl]-2-imino-6-methyl-3-[(2R*,4S*)-2-methyl-1,1-dioxothian-4-yl]hexahydro-pyrimidin-4-one hydrochloride] yielded an IC50 of 460 nM. `C[C@H]1C[C@@H](N2C(=N)N[C@](C)(c3cccc(-c4ccc(OC(F)(F)F)nc4)c3Cl)CC2=O)CCS1(=O)=O` (relative stereo) [Example 78, (6S)-6-{2-Chloro-3-[6-(trifluoro-methoxy)pyridin-3-yl]phenyl}-2-imino-6-methyl-3-[(2S*,4S*)-2-methyl-1,1-dioxothian-4-yl]-hexahydropyrimidin-4-one hydrochloride] showed an IC50 of 365 nM. For `C[C@@H]1C[C@H](N2C(=N)N[C@](C)(c3cccc(-c4ccc(OC(F)(F)F)nc4)c3Cl)CC2=O)CCS1(=O)=O` (relative stereo) [Example 79, (6S)-6-{2-Chloro-3-[6-(trifluoro-methoxy)pyridin-3-yl]phenyl}-2-imino-6-methyl-3-[(2R*,4R*)-2-methyl-1,1-dioxothian-4-yl]-hexahydropyrimidin-4-one hydrochloride], the IC50 was 107 nM.

Same assay, conditions: Plasmodium falciparum, Erythrocyte; P. falciparum 3D7 in human erythrocytes, 72 h incubation, SYBR green fluorescence; read-out: IC50
Compound `C[C@@H]1C[C@@H](N2C(=N)N[C@](C)(c3cccc(-c4ccc(OC(F)F)nc4)c3Cl)CC2=O)CCS1(=O)=O` (relative stereo) [Example 72, (6S)-6-{2-Chloro-3-[6-(difluoro-methoxy)pyridin-3-yl|phenyl}-2-imino-6-methyl-3-[(2R*,4S*)-2-methyl-1,1-dioxothian-4-yl]-hexahydropyrimidin-4-one hydrochloride] has an IC50 of 913 nM.
